Results on eleven compounds are retold here after US6787564B2, “Optically active clausenamides, process of the preparation thereof, pharmaceutical composition containing the same and their medical use” (Institute of Materia Medica, Chinese Academy of Medical …, priority 2002, dated 2004).

Assay [1] has as its system β-AP (25-35)-treated rats. The assay is described as follows: one trial passive avoidance of β-AP (25-35)-treated rats. The assay is classed as in vivo. The following applies: β-AP-treated + vehicle, n = 8, MEAN ± S.E.M.
Another assay concerns A β 25-35 treated rats. The assay is described as follows: Morris water maze, A β 25-35 induced impairment of memory. The assay is classed as in vivo. The following applies: A β 25-35 alone. The source says:
Pathological features of Alzheimer's disease (AD) include extensive neuronal loss and the presence of numerous neurofibrillary tangles and senile plaques in the brain. The senile plaques contain amyloid fibrils derived from a 39-43 amino acids peptide referred to as β-amyloid or A β which can produce neurotoxicity. A β 25-35 poccesses the similar neurotoxicity and ability of self-aggregation as A β 1-42. Administrated aggregated A β 25-35 into rat's lateral cerebral ventricle induced memory impairment in Morris water maze.
With increasing of training days, the initial heading angle became small. On the 3th day, the initial heading angle of A β group was larger than control. […] (see Tab.3)
There are four strategies for finding platform in Morris water maze: random, circle, taxis and line. In the beginning of training the search strategies for finding target is mainly circle and random, with the increasing of training, the percentage of the two strategies declined gradually, Beginning from the 3th day, declining speed in control and (−) clausenamide group was faster than A β,(+) clausenamide and piracetam groups.

Assay [2] relates to dentate gyrus of hippocampus. Description: induction of LTP in hippocampal of rat (population spike amplitude). The assay is classed as in vivo, SD rats. Conditions: I.C.V.; means ± SD. The source says: Adult male SD rats were anesthetized to maintain a surgical level. A stainless steel cannula-recording electrode was placed in DG (dentate gyrus) of hippocampus using a stereotaxic instrument. The combination of cannula-recording electrode was constructed by insulating the outside of the cannula, except at the tip and top. In the top noninsulated area, a stainless steel wire was wrapped around the cannula and connected to the amplifier via an amphenol connector. The four pairs optically active clausenamides shown in table 9 was delivered by I.C.V. Responses were evoked via direct stimulation of the performant path (PP) using a stainless steel bipolar stimulating electrode. Constant current stimulation provided by a stimulator was delivered to the stimulating electrode through a Stimulus Isolation Unit.
The stimulating electrode was adjusted until a characteristic EPSP was observed under constant current. The evoked responses were amplified on a series alternating current preamplifier, using a microcomputer, and then stored for off-line analysis using DataWave software. The current intensity that elicited a 50% maximal response in each animal was determined and used for all subsequent stimulation. To measure treatment effects, responses were evoked once every 30 sec throughout the entire experiment, and population spike amplitude(PSA) were calculated.

In assay [3] the test system is animals with anisodine-induced memory impairment. The assay is described as follows: step-through test, memory impairment induced by anisodine. The assay is classed as in vivo. From the text:
(§1) This invention used one trial avoidance task—step-down and step-through tests and water maze to compare the improving memorial effects of (±), (−) clausenamide. The drugs were given orally once to animals before experiment in step-down and step-through tests. The water maze test lasted for 5 days in succession. The results were expressed as latency and errors number.

Assay [4] has the same test system. Description: memory impairment induced by anisodine in water maze test. The assay is classed as in vivo.
Description: as §1

The subject of assay [5] is Human embryonic neural stem cells. Description: colony-form frequency in human embryonic neural stem cells. The assay is classed as cell-based. The following applies: 1 μM; for Colonies, 6 weeks / Colonies, 4 weeks / Colonies, 3 weeks: N 4; for Colonies, 6 weeks: Control(DMSO) 22.25 ± 4.86; for Colonies, 4 weeks: Control(DMSO) 30.33 ± 4.99; for Colonies, 3 weeks: Mean ± SD, Control(DMSO) 43.00 ± 4.97. The method, then:
Human embryonic brain neural stem cells(NSC) were dissociated enzymatically with 0.05% trypsin-0.53 mM EDTA and cultured in the DMEM/F12 medium with N2 supplement (GIBCO), fibroblast growth factor-2 (20 ng/ml), epidermal growth factor (20 ng/ml) at 37° C. The media were changed once every week. The single cell suspension from neurosphere cells of NSC was dissociated by 0.1% trypsin. 2×10^4 cells were seeded in a well of a 96-well plate. After 24 hours, the dose at 1 μM of tested chemical was added in a well. 6 chemicals, (−)neoclausenamide(−), (+)neoclausenamide(+), (−)epineoclausenamide(−), (+)epineoclausenamide(+), (−)cisneoclausenamide(−) and (+)cisneoclausenamide(+), were detected. 4 wells were used each group. The media with tested chemical were changed once every week. The colonies of NSC were formed and counted under a microscopy at 3 weeks, 4 weeks and 6 weeks.

Another assay deals with animals. Description: memory in water maze test. The assay is classed as in vivo.
Description: as §1

Assay [6] relates to dentate gyrus granule cells. Description: basal synaptic transmission / LTP in dentate gyrus of hippocampus in anesthetized rats (population spike amplitude). The assay is classed as in vivo. Conditions: for decrease of PS amplitude compared with that of (−) clausenamide: 60 min. From the text:
Drugs or vehicle injection were delivered via cannula in the lateral cerebral ventricle at final concentration of 2×10^−6 mol/L. The population spike (PS) amplitude was employed as an indication of the level of excitation of the granular cell population in the dentate gyrus. To obtain this measurement, an evoked response was generated in the dentate gyrus granule cell layer by stimulating the pp at low freguency (0.033 Hz) with. single square wave pulses of 0.15 ms duration The LTP formation must accord the following creteria: The PS amplitude increased is over 30% and this high PS amplitude can persist for 40 min.

The mark [7] stands for this setting: anisodine + drug 10 mg/kg (Tab 7).
Setting [8] is: anisodine + drug 50 mg/kg (Tab 7).

In the case of “A β 25-35: β-amyloid fragment with neurotoxicity and self-aggregation like A β 1-42; icv injection induces memory impairment (GSNKGAIIGLM; Amyloid-beta protein 42; UniProt P05067 696-706, looked up, fragment)”, in assay [1] (sham-operated + vehicle 0.3 ± 0.12), the “Number of error, Acquisition” value was 0.9 ± 0.33. Moreover, in assay [1] (sham-operated + vehicle 1.6 ± 0.42), the “Number of error, Training” value is on record as 2.6 ± 0.71. Moreover, the “initial heading angle, training day 5” value in the assay with A β 25-35 treated rats (control 15.4 ± 20.4) came out at 46.7 ± 19.4. The “initial heading angle, training day 4” value in the assay on A β 25-35 treated rats (control 29.6 ± 10.7) turned out to be 60.6 ± 23.8. The “initial heading angle, training day 3” value in the assay on A β 25-35 treated rats (control 47.3 ± 15.1) was 73.6 ± 20.3. Also, the “initial heading angle, training day 2” value with A β 25-35 treated rats (control 76.8 ± 29.8) was 98.7 ± 30.4. In the assay on A β 25-35 treated rats (control 93.6 ± 34.6), the “initial heading angle, training day 1” value was 106.3 ± 29.8.
Turning to `CN1C(=O)[C@H](O)[C@H]([C@H](O)c2ccccc2)[C@H]1c1ccccc1` [(+)epiclausenamide, 3R4S5S6S (+)epiclausenamide], in assay [2], the “PSA (%), 15 min” value is listed as 136.0 ± 22.8%; the “PSA (%), 30 min” value is given as 147.5 ± 15.0%; the “PSA (%), 60 min” value came to 207.8 ± 12.8%.
`CN1[C@@H]2CC(OC(=O)[C@@](O)(CO)c3ccccc3)C[C@H]1[C@@H]1O[C@@H]12` (stereo partly drawn) [Anisodine, reference compound] had an Error number in assay [3] (anisodine 10 mg/kg alone, 0.9% Nacl 2.0 ± 3.8 (Tab 7)) of 14.1 ± 8.9. In assay [3] (anisodine 10 mg/kg alone, 0.9% Nacl 152.1 ± 64.2, N = 10 (Tab 7)), this compound showed a Latencies of 35.8 ± 76.4 s. The same compound displayed an Errors number in assay [4] (anisodine group alone, 10 animals) of 15.9 ± 11.3.
On to `CN1C(=O)[C@H](O)[C@H]([C@@H](O)c2ccccc2)[C@@H]1c1ccccc1` [(+)epineoclausenamide, 3R4S5R6R(+)epineoclausen amide], for which, in assay [5], the “frequency of colonies of NSC vs control group at 6 weeks (in words)” value is recorded as “not any difference”; the “Colonies, 6 weeks” value was 26.00 ± 2.94; the “Colonies, 4 weeks” value is 38.50 ± 5.02; the “Colonies, 3 weeks” value came out at 49.75 ± 10.26.
Consider `CN1C(=O)[C@@H](O)[C@@H]([C@@H](O)c2ccccc2)[C@@H]1c1ccccc1` [(−)epiclausenamide, 3S4R5R6R (−)epiclausenamide], for which, in assay [2], the “PSA (%), 15 min” value came out at 97.8 ± 21.7%; the “PSA (%), 30 min” value is listed as 91.2 ± 22.5%; the “PSA (%), 60 min” value came to 117.3 ± 22.5%.
`CN1C(=O)[C@@H](O)[C@H]([C@H](O)c2ccccc2)[C@@H]1c1ccccc1` [(−)cisneoclausenamide, 3S4S5R6S (−)cisneoclausenamide]: in assay [2], the “PSA (%), 15 min” value is listed as 94.1 ± 6.7%; the “PSA (%), 30 min” value was determined as 98.2 ± 6.6%; the “PSA (%), 60 min” value is given as 94.9%. In assay [5], the “frequency of colonies of NSC vs control group at 6 weeks (in words)” value is “significantly difference”; the “Colonies, 6 weeks” value came to 33.50 ± 4.20; the “Colonies, 4 weeks” value is reported as 35.25 ± 7.46; the “Colonies, 3 weeks” value stood at 49.50 ± 5.43.
As to `CN1C(=O)[C@H](O)[C@@H]([C@@H](O)c2ccccc2)[C@H]1c1ccccc1` [(+)cisneoclausenamide, 3R4R5S6R (+)cisneoclausenamide], in assay [2], the “PSA (%), 15 min” value stood at 135.0 ± 12.9%; the “PSA (%), 30 min” value is 150.9 ± 19.9%; the “PSA (%), 60 min” value worked out at 192.3 ± 22.4%. Also, in assay [5], the “frequency of colonies of NSC vs control group at 6 weeks (in words)” value is “not any difference”; the “Colonies, 6 weeks” value turned out to be 24.00 ± 4.69; the “Colonies, 4 weeks” value came to 42.50 ± 10.01; the “Colonies, 3 weeks” value was found to be 47.00 ± 9.03.
Regarding `CN1C(=O)[C@H](O)[C@@H]([C@H](O)c2ccccc2)[C@@H]1c1ccccc1` [(−)cisclausenamide, 3R4R5R6S (−)cisclausenamide], in assay [2], the “PSA (%), 15 min” value stood at 126.2 ± 2.3%; the “PSA (%), 30 min” value was found to be 141.2 ± 8.6%; the “PSA (%), 60 min” value was found to be 205.4 ± 24.7%.
“Racemic clausenamide [(±) clausenamide, reference compound]”: the “Lalencies reaching platform, 3rd day” value in the assay with animals (10 mg/kg) turned out to be 23.9 ± 22.6 s; with animals (50 mg/kg) it was 25.7 ± 13.8 s. For the same compound, the results for the “Lalencies reaching platform, 4th day” value with animals (10 mg/kg) and in the assay with animals (50 mg/kg) were 17.1 ± 14.3 s and 14.6 ± 10.4 s, respectively. Further, the “Lalencies reaching platform, Second day” value was 35.8 ± 35.2 s with animals (10 mg/kg) and 36.6 ± 37.0 s in the assay on animals (50 mg/kg). Further, the Error number in assay [3] (setting [7]) was 11.3 ± 21.5; in assay [3] (setting [8]), 14.4 ± 12.3. For the same compound, the Latencies in assay [3] (setting [7]) was found to be 43.0 ± 65.8 s; in assay [3] (setting [8]), 79.9 ± 63.6 s. In addition, the Errors number in assay [4] (anisodine + drug 10 mg/kg) stood at 16.6 ± 23.9; in assay [4] (anisodine + drug 100 mg/kg), 9.11 ± 3.8. Moreover, the “effect on PS amplitude (in words)” value in assay [6] (2 μM to 10 μM) was “inhibitory effect on PS amplitude”. The “decrease of PS amplitude compared with that of (−) clausenamide” value in assay [6] (first of the two concentrations (2 μM)) is on record as 44%; in assay [6] (second of the two concentrations (10 μM)) it was 55%. The “LTP formation (PS amplitude increase over 30% persisting 40 min)” value in assay [6] ((−) at 2×10^−6 mol/L, (±) up to 5 times that) is recorded as “could not induce LTP”.
Take `CN1C(=O)[C@@H](O)[C@H]([C@@H](O)c2ccccc2)[C@H]1c1ccccc1` [(+)cisclausenamide, 3S4S5S6R (+)cisclausenamide]: in assay [2], the “PSA (%), 15 min” value is 87.3 ± 4.4%; the “PSA (%), 30 min” value came out at 102.9 ± 5.9%; the “PSA (%), 60 min” value was determined as 122.5 ± 14.5%.
On to `CN1C(=O)[C@@H](O)[C@@H]([C@H](O)c2ccccc2)[C@H]1c1ccccc1` [(−)epineoclausenamide, 3S4R5S6S(−)epineoclausenamide], for which, in assay [5], the “frequency of colonies of NSC vs control group at 6 weeks (in words)” value is “significantly difference”; the “Colonies, 6 weeks” value came to 32.50 ± 7.05; the “Colonies, 4 weeks” value is recorded as 36.75 ± 7.59; the “Colonies, 3 weeks” value was 58.00 ± 13.02.
